Data from patent US20050026068A1, “Polycarbocyclic derivatives for modification of resist, optical and etch resistance properties” (priority 2001, published 2005).

How the values were obtained:
[1] = UV absorbance of PMMA films loaded with additive; type: physicochemical; conditions: additive 7.5% w/w of PMMA
Procedure: A quantity of a polyaromatic compound (i.e.compound (XI), Table 9), was added in part of this solution at a 7.5% w/w of the polymer concentration.
The solution was stirred at room temperature for a few hours and the polyaromatic compound was dissolved. Then, a small amount of the solution was used to spin coat a film on quartz substrate at 4000 rpm for 30 sec. The thickness of this film was measured by a profilometer and found 12250 Å. The absorption spectrum of the film was taken at vertical incidence.
The same procedure was repeated, using the initial PMMA solution this time. A new film was spun and its thickness was found 13000 Å. […]

[2] = Sublimation of additive from PMMA film on hotplate heating (absorption spectra); type: physicochemical
Procedure: The same procedure was repeated for heating at 110° C., 130° C. and 160° C. The spectra taken each time were compared and the possible sublimation of the additive after the different thermal treatment procedures was calculated.
The following explanations apply to all tables. […] SUBL=temperature of sublimation.

[3] = Solubility of additive in the solvents used (PGMEA, MIBK)
Procedure: It is important that the selected additive is soluble in the solvents commonly used in the microlithography process. […] After film formation the amount of the additive sublimed during the baking cycles was tested. Evaluation of spectroscopic and etch resistance enhancement followed.
SOL=solubility at the solvents used (##=very bad, #=bad, *=good, **=very good). SUBL=temperature of sublimation.

[4] = UV absorbance of PMMA films loaded with additive; type: physicochemical; conditions: additive 5% w/w of PMMA; value includes PMMA absorbance (higher by 0.07)

O=C(OCc1c2ccccc2cc2ccccc12)c1c2ccccc2cc2ccccc12 [VII]
UV 193 nm (absorbance) [1]: 0.35 /0.5 μm | UV 248 nm (absorbance) [1]: 1.16 /0.5 μm | SUBL (temperature of sublimation) ([2]; additive 7.5% w/w in PMMA film): 160 °C | solubility (in words) [3]: not satisfactory

OCc1c2ccccc2cc2ccccc12 [9-anthracene methanol]
SUBL (temperature of sublimation) ([2]; additive 5% w/w in PMMA film): 110 °C | UV 193 nm (absorbance) [4]: 0.43 /0.5 μm

O=C(OCCOc1c2ccccc2cc2ccccc12)OCCOc1c2ccccc2cc2ccccc12 [VI, Di-2-(9-anthryloxy)-ethyl carbonate]
UV 193 nm (absorbance) [1]: 0.24 /0.5 μm | UV 248 nm (absorbance) [1]: 1.04 /0.5 μm | SUBL (temperature of sublimation) ([2]; additive 7.5% w/w in PMMA film): 130 °C

c1ccc2c(CNC3CCCCC3NCc3c4ccccc4cc4ccccc34)c3ccccc3cc2c1 (stereo not drawn) [VIII, trans-1,2-Di-(9-aminomethyl-anthryl)-cyclohexane]
solubility (in words) [3]: improved solubility

c1ccc2c(CNCc3c4ccccc4cc4ccccc34)c3ccccc3cc2c1 [IV, N,N-Di-(9-anthrylmethyl)-amine]
UV 193 nm (absorbance) [1]: 0.22 /0.5 μm | UV 248 nm (absorbance) [1]: 0.31 /0.5 μm | SUBL (temperature of sublimation) ([2]; additive 7.5% w/w in PMMA film): 160 °C

OC(Cc1c2ccccc2cc2ccccc12)Cc1c2ccccc2cc2ccccc12 [I]
UV 193 nm (absorbance) [1]: 0.16 /0.5 μm | UV 248 nm (absorbance) [1]: 0.48 /0.5 μm | SUBL (temperature of sublimation) ([2]; additive 7.5% w/w in PMMA film): 160 °C | solubility (in words) [3]: improved solubility

O=C(CCC(=O)OC(Cc1c2ccccc2cc2ccccc12)Cc1c2ccccc2cc2ccccc12)OCC(COC(=O)CCC(=O)OC(Cc1c2ccccc2cc2ccccc12)Cc1c2ccccc2cc2ccccc12)Cc1c2ccccc2cc2ccccc12 [X, Penta-anthryl ester]
UV 193 nm (absorbance) [1]: 0.33 /0.5 μm | UV 248 nm (absorbance) [1]: 0.75 /0.5 μm | SUBL (temperature of sublimation) ([2]; additive 7.5% w/w in PMMA film): 160 °C | solubility (in words) [3]: decreased solubility

O=C(O)CCC(=O)OC(Cc1c2ccccc2cc2ccccc12)Cc1c2ccccc2cc2ccccc12 [II, 1,3-di-(9-anthryl2-propyl hydrogen succinate]
UV 193 nm (absorbance) [1]: 0.33 /0.5 μm | UV 248 nm (absorbance) [1]: 1.25 /0.5 μm | SUBL (temperature of sublimation) ([2]; additive 7.5% w/w in PMMA film): 160 °C | solubility (in words) [3]: improved solubility

O=C(OCc1c2ccccc2cc2ccccc12)C12CC3CC(CC(C3)C1)C2 [XI, 1-adamantyl 9-anthrylmethylate]
UV 193 nm (absorbance) [1]: 0.05 /0.5 μm | UV 248 nm (absorbance) [1]: 0.36 /0.5 μm | SUBL (temperature of sublimation) ([2]; additive 7.5% w/w in PMMA film): 160 °C | solubility (in words) [3]: very good solubility

O=C(O)c1c2ccccc2cc2ccccc12 [9-anthracene carboxylic acid]
SUBL (temperature of sublimation) ([2]; additive 5% w/w in PMMA film): 110 °C | UV 193 nm (absorbance) [4]: 0.46 /0.5 μm

Nc1ccc2cc3ccccc3cc2c1 [2-aminoanthracene]
SUBL (temperature of sublimation) ([2]; additive 5% w/w in PMMA film): 110 °C | UV 193 nm (absorbance) [4]: 0.51 /0.5 μm

O=C(OCC(COC(=O)C12CC3CC(CC(C3)C1)C2)Cc1c2ccccc2cc2ccccc12)C12CC3CC(CC(C3)C1)C2 (stereo not drawn) [Compound XIII, Mixed anthryl ester]
UV 193 nm (absorbance) [1]: 0.17 /0.5 μm | UV 248 nm (absorbance) [1]: 0.45 /0.5 μm | SUBL (temperature of sublimation) ([2]; additive 7.5% w/w in PMMA film): 160 °C

O=C(CCC(=O)OC(Cc1c2ccccc2cc2ccccc12)Cc1c2ccccc2cc2ccccc12)OCc1c2ccccc2cc2ccccc12 [IX, 1,3-Di-(9-anthryl)-2-propyl 9-anthrylmethyl Succinate]
UV 193 nm (absorbance) [1]: 1.41 /0.5 μm | UV 248 nm (absorbance) [1]: 1.74 /0.5 μm | SUBL (temperature of sublimation) ([2]; additive 7.5% w/w in PMMA film): 160 °C | solubility (in words) [3]: decreased solubility

CC(=O)C1CCC2C3CC=C4CC(OC(=O)c5c6ccccc6cc6ccccc56)CCC4(C)C3CCC12C (stereo not drawn) [Compound XIV, 5-pregnen-3β-yl-(9-anthryl-methylate)-20-one]
UV 193 nm (absorbance) [1]: 0.20 /0.5 μm | UV 248 nm (absorbance) [1]: 0.52 /0.5 μm | SUBL (temperature of sublimation) ([2]; additive 7.5% w/w in PMMA film): 160 °C

c1ccc2cc3ccccc3cc2c1 [anthracene]
SUBL (temperature of sublimation) ([2]; additive 5% w/w in PMMA film): 110 °C | UV 193 nm (absorbance) [4]: 0.38 /0.5 μm
